Test results taken from doi:10.1101/2023.11.24.568596v1 (biorxiv, 2023).

Key:
Details in all cases: binder
NEK1 = molecular target: T1, NEK1 (Homo sapiens, UniProt Q96PY6)
T1 sequence (Q96PY6 1-1258): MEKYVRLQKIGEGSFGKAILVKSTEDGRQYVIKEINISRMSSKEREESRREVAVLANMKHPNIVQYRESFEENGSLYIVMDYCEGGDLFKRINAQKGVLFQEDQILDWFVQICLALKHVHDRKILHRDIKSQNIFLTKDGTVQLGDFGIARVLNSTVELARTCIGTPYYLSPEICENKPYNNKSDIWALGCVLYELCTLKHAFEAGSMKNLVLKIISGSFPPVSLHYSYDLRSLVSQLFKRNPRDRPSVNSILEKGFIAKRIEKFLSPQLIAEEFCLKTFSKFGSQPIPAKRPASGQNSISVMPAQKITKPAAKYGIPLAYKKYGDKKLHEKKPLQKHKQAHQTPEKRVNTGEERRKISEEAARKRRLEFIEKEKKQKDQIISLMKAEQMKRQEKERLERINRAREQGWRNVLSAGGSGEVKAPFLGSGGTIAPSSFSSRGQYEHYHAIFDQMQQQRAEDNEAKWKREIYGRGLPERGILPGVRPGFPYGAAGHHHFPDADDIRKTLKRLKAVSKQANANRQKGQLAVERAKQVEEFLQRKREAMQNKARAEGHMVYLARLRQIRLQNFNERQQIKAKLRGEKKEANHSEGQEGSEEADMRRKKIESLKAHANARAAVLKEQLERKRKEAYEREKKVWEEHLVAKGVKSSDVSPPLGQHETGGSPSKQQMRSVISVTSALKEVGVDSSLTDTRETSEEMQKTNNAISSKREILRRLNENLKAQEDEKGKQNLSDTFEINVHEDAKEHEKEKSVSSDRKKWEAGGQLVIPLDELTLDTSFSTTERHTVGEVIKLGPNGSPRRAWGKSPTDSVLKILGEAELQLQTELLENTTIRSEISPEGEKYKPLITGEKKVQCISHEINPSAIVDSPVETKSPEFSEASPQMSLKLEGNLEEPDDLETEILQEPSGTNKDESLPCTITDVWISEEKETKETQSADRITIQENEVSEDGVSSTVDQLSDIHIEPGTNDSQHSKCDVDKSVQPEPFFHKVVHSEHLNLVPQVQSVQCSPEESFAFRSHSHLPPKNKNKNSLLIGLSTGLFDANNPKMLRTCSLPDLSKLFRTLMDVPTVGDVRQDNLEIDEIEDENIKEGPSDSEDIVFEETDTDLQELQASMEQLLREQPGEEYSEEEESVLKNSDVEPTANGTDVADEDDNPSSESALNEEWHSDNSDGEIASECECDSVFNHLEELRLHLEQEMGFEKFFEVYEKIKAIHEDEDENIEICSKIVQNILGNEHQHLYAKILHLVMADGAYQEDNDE

DMPK1 = molecular target: T2, DMPK1 (Homo sapiens, UniProt Q09013)
T2 sequence (Q09013 1-629): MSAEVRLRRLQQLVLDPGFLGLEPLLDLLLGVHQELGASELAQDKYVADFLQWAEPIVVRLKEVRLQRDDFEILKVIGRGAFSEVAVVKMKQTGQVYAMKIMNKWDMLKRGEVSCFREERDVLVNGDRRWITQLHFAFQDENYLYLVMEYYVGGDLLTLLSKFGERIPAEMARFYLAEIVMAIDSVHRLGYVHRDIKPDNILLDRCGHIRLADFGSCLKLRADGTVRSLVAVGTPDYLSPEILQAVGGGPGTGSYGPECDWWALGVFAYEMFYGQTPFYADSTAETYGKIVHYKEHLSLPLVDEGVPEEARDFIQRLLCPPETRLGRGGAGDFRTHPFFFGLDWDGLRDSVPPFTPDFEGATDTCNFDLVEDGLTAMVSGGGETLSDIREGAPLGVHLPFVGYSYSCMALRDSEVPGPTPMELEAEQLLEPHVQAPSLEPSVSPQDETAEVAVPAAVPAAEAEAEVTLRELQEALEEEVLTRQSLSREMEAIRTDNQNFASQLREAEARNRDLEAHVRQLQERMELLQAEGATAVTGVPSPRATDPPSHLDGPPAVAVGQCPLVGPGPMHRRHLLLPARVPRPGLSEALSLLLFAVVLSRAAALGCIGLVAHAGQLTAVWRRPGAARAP

NEK7 = NEK7 (Homo sapiens, UniProt Q8TDX7)
Sequence of NEK7 (Q8TDX7 whole entry): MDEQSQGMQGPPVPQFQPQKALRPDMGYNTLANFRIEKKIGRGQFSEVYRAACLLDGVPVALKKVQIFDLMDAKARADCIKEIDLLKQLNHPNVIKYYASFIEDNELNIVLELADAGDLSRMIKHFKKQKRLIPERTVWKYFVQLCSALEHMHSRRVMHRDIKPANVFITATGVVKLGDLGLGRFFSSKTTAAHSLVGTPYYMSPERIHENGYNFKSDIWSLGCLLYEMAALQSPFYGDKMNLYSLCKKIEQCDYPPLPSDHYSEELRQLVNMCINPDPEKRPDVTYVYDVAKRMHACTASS

SRC = SRC (Homo sapiens, UniProt P12931)
Sequence of SRC (P12931 whole entry): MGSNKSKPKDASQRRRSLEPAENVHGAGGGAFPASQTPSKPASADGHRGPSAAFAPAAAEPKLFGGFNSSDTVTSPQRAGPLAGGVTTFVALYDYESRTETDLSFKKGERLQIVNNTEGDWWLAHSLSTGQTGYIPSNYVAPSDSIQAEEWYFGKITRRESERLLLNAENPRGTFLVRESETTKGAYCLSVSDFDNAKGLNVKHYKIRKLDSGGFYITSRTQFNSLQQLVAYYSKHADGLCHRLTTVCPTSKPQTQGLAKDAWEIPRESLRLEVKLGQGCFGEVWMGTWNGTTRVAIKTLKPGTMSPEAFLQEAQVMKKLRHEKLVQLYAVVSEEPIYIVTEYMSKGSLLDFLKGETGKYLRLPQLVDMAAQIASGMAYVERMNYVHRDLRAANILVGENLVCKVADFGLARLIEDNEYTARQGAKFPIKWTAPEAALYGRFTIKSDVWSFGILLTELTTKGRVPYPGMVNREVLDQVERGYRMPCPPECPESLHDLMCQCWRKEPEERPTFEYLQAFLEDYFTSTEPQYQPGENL

CDK2 = CDK2 (Homo sapiens, UniProt P24941)
MYT1 = molecular target: T3, MYT1 (Homo sapiens, UniProt Q99640)
T3 sequence (Q99640 1-499): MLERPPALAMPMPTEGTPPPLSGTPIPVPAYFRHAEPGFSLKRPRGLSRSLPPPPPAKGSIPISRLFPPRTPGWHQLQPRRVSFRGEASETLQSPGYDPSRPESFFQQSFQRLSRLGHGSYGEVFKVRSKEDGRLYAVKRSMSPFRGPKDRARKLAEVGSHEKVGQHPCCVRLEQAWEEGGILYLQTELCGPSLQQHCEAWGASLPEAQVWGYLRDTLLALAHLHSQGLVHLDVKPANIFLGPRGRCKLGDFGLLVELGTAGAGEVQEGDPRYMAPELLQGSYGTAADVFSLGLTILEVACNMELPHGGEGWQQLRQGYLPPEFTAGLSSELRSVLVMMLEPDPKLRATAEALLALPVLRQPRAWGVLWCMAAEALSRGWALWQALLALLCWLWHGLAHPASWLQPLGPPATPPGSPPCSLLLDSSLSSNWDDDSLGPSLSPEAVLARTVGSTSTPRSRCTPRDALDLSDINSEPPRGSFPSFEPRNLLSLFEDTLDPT

MELK = MELK (Homo sapiens, UniProt Q14680)
Sequence of MELK (Q14680 whole entry): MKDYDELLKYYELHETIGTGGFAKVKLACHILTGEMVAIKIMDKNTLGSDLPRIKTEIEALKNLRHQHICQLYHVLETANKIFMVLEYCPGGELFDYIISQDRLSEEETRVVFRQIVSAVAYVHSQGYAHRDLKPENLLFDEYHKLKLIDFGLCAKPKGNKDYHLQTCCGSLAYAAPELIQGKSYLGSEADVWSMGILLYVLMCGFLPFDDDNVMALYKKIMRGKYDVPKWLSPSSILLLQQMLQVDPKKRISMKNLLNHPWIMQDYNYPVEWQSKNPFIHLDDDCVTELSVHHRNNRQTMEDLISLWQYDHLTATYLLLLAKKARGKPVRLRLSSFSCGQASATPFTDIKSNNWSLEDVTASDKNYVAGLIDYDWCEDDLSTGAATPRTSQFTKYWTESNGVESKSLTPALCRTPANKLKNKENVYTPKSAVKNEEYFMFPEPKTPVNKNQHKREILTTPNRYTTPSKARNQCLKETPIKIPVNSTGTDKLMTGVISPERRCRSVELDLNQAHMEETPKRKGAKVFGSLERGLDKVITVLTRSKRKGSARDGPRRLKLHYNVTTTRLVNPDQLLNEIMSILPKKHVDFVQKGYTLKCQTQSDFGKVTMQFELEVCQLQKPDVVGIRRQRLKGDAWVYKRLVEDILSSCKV

## Cc1cccc(-c2ccc(-c3cc4cnc(Nc5ccc(F)c(CO)c5)nc4n(CCCCN)c3=O)c(Cl)c2)n1 [compound 33, 8-(4-Aminobutyl)-6-(2-chloro-4-(6-methylpyridin-2-yl)phenyl)-2-((4-fluoro-3-(hydroxymethyl)phenyl)amino)pyrido[2,3-d]pyrimidin-7(8H)-one]
NEK1
  dTm 33: -3.6 °C
DMPK1
  dTm 33: -4.7 °C
NEK7
  dTm 33: -1.4 °C
SRC
  dTm 33: 4.7 °C
CDK2
  dTm 33: 6.0 °C
MYT1
  dTm 33: -1.8 °C
MELK
  dTm 33: 6.4 °C

## COc1ccc(O)c(Nc2ncc3cc(-c4ccc(-c5cccc(C)n5)cc4Cl)c(=O)n(CCCCN)c3n2)c1 [compound 34, 8-(4-Aminobutyl)-6-(2-chloro-4-(6-methylpyridin-2-yl)phenyl)-2-((2-hydroxy-5-methoxy-phenyl)amino)pyrido[2,3-d]pyrimidin-7(8H)-one]
NEK1
  dTm 34: -1.0 °C
DMPK1
  dTm 34: -0.8 °C
NEK7
  dTm 34: -1.0 °C
SRC
  dTm 34: 3.1 °C
CDK2
  dTm 34: 1.4 °C
MYT1
  dTm 34: -2.7 °C
MELK
  dTm 34: 3.3 °C

## COc1cc(N2CCOCC2)ccc1Nc1ncc2cc(-c3ccc(-c4cccc(C)n4)cc3Cl)c(=O)n(CCCCN)c2n1 [compound 35, 8-(4-Aminobutyl)-6-(2-chloro-4-(6-methylpyridin-2-yl)phenyl)-2-((2-methoxy-4-morpholino-phenyl)amino)pyrido[2,3-d]pyrimidin-7(8H)-one]
NEK1
  dTm 35: -0.7 °C
DMPK1
  dTm 35: -2.1 °C
NEK7
  dTm 35: -2.4 °C
SRC
  dTm 35: 4.4 °C
CDK2
  dTm 35: 1.0 °C
MYT1
  dTm 35: -3.5 °C
MELK
  dTm 35: 7.5 °C

## COc1cc(N2CCN(C)CC2)ccc1Nc1ncc2cc(-c3ccc(-c4cccc(C)n4)cc3Cl)c(=O)n(CCCCN)c2n1 [compound 36, 8-(4-Aminobutyl)-6-(2-chloro-4-(6-methylpyridin-2-yl)phenyl)-2-((2-methoxy-4-(4-methylpiperazin-1-yl)phenyl)amino)pyrido[2,3-d]pyrimidin-7(8H)-one]
NEK1
  dTm 36: 0.0 °C
DMPK1
  dTm 36: -1.5 °C
NEK7
  dTm 36: -1.4 °C
SRC
  dTm 36: 4.1 °C
CDK2
  dTm 36: 0.6 °C
MYT1
  dTm 36: -2.8 °C
MELK
  dTm 36: 7.4 °C
